Measurements reported in patent publication US20120035244A1, “PARP1 TARGETED THERAPY” (THE REGENTS OF THE UNIVERSITY OF MICHIGAN, priority 2010, published 2012).
Entries after “also recorded” stand apart in the source; their conditions may differ.

How the values were obtained:
[1] = test system: Ewing's sarcoma cell lines; assay: Ewing's sarcoma cell lines: soft agar colony formation and neutral COMET assays; type: cell-based; settings: with or without 10 μM Olaparib for 48 hours (COMET); soft agar colony formation
Protocol: The effect of PARP1 inhibitors on Ewing's sarcoma cell lines was assayed. CADO-ES1 or RD-ES1 cells were treated with siRNA for 48 hours. Cells were then harvested and plated in a transwell migration assay. Forty eight hours later, cells were stained with crystal violet and the total number or invaded cells was quantified. Soft agar colony formation was performed on cells treated with or without Olaparib. Neutral COMET assays were performed on a panel of Ewing's Sarcoma cell lines. PC3 was used as an ETS negative control and PC3-ERG for comparison to an ETS positive model. Cells were treated with or without 10 μM Olaparib for 48 hours. D) As in C, except cells were pre-treated with siRNA for 48 hours. All experiments were run in triplicate. Error bars are standard error of the mean.

[2] = test system: MDA-PCa-118b (ETS negative); assay: Human prostate cancer tissue xenograft (primagraft) MDA-PCa-118b; type: in vivo, mice; settings: 40 mg/kg Olaparib
Protocol: (§1) Human prostate cancer specimens MDA-PCa 2b-T (ETV1 positive), MDA-PCa-133 (ERG positive) and MDA PCa 118b (ETS-negative) were obtained (Li, Z. G., et al. The Journal of clinical investigation 118, 2697-2710 (2008)). Each xenografted tumor tissue was aseptically harvested from the host mice. New recipient mice were anesthetized by injecting […] intraperitoneally for chemical restraint before tumor implantation. About 0.5 cm^3 size of the excised tumor tissue was directly implanted into subcutaneous pockets of 6- to 8-week-old male CB17 SCID mice (Charles River Laboratories) in a laminar flow sterile hood. Sub-cutaneous pocket was carefully closed by applying 1 or 2 wound clips. All mice were monitored for 24 hours after implantation procedure for any apparent physiologic disturbances or missing wound clips. Olaparib (40 mg/Kg body weight) treatment was started after 72 hours. […] Body weight was also monitored weekly during the course of the study.

LNCaP = assay: CAM xenograft tumor weight, LNCaP; type: in vivo, chicken embryo; settings: extended Olaparib treatment, P<0.01
Protocol: (§2) The CAM assay was performed as described previously (Zijlstra, A., et al., Cancer research 62, 7083-7092 (2002)). Briefly, fertilized eggs were incubated in a rotary humidified incubator at 38° C. with for 10 days. After releasing the CAM by applying mild amount of low pressure to the hole over the air sac and cutting a square 1-cm^2 window encompassing a second hole near the allantoic vein, cultured human cells that had been pre-treated with siRNA as indicated were detached by trypsinization and re-suspended in complete medium prior to implantation of 2×10^6 cells adjacent to the mesenchyme in each egg. The windows were subsequently, sealed and the eggs were returned to a stationary incubator. Cells were then treated as indicated with 40 mg/kg body weight Olaparib which was administered on day 13, 15 and 17. Day 18 embryos were sacrificed. Tumors were then excised and weighed. […] After incubation of either the metastasis or intravasation assays, the extra-embryonic tumor and CAM, as well as the embryonic liver were harvested and analyzed for the presence of tumor cells by quantitative human alu-specific PCR. […] Quantification of human cells in the extracted DNA was done as described^14. Fluorogenic TaqMan qPCR probes were applied as above, and DNA copy numbers were quantified.

[3] = test system: MDA-PCa-133 (ERG positive); assay: Human prostate cancer tissue xenograft (primagraft) MDA-PCa-133; type: in vivo, mice; settings: MDA-PCa-133, 40 mg/kg Olaparib; P=0.05 (Day 8), P<0.01 (day 16, 24 and 32)
Protocol: as §1

RWPE-ERG cells = assay: Chicken chorioallantoic membrane (CAM) intravasation assay, RWPE-ERG cells; type: in vivo, chicken embryo; settings: lower CAM three days after implantation, 40 mg/kg Olaparib, P<0.1
Protocol: as §2

PC3 cells = assay: Colony formation after radiation, isogenic PC3 model overexpressing T2:ERG; type: cell-based; settings: PC3, pre-treated with 10 μM Olaparib
Protocol: The effect of ETS overexpression on radioresistance was assayed. Isogenic PC3 or DU145 models overexpressing either T2:ERG or ERG with a deleted ETS domain were pre-treated with or without 10 μM Olaparib and then treated with different doses of radiation as indicated. Colony formation was assessed. Experiments were also performed in which cells were pre-treated with either PARP1 or control siRNA prior to radiation. Western blot analysis was used to assess PARP knockdown efficiency in the inset. Total Poly(ADP-ribose) (or PAR) levels were assessed by Western blot analysis from total cell lysates. All experiments were run in triplicate. Error bars are standard error of the mean.

[4] = test system: DU145 model overexpressing T2:ERG; assay: γH2A.X foci after radiation (DNA double strand break repair), isogenic DU145 model; type: cell-based; settings: DU145, pre-treated with 10 μM Olaparib, then radiation
Protocol: The effect of ETS overexpression on repair of DNA double strand breaks was assayed. Isogenic PC3 and DU145 models, respectively, overexpressing either T2:ERG or ERG with a deleted ETS domain were pre-treated with or without 10 μM Olaparib and then treated with radiation. Immunofluorescence staining of γH2A.X foci was used to assess total levels of DNA damage and repair rate. The number of cells with >10 γH2A.X foci were quantified at each time point as indicated. Representative photomicrographs were taken 24 hours after treatment using an Olympus confocal microscope with a 100× Oil objective. All experiments were run in triplicate. Error bars are standard error of the mean.

panel of cell lines = assay: WST chemosensitivity assay (72 hours); type: cell-based; settings: after 72 hours, any of the cell lines tested
PC3 xenografts = assay: PC3 (PC3-control) mouse xenograft model; type: in vivo, mice; settings: PC3 / PC3-control (ETS negative); Olaparib 40 mg/kg IP, NU7026 25 mg/kg IP
Text: Olaparib was obtained from Axon Medchem (Groningen, The Netherlands).

[5] = test system: RWPE cells stably overexpressing ETV1; assay: Basement membrane matrix invasion assay, RWPE-ETV1 cells; type: cell-based, human; settings: P<0.01 for all PARP1 or DNA-PKcs treatments
Protocol: For invasion assays, the prostate cell lines RWPE-1 and VCaP were transfected with siRNA or negative controls as indicated. NU7026 (Sigma) and NU1025 (Calbiochem) were dissolved in DMSO and stored at −20° C. in the dark. Forty-eight hours post-transfection/transduction, cells were seeded onto the basement membrane matrix (EC matrix, Chemicon, Temecula, Calif.) in the chamber insert with […] pores of a 24-well culture plate in serum free media. Cells were attracted to the lower chamber by the addition of complete media as a chemoattractant. After 48 hours incubation at 37° C. with 5% CO2, the non-invading cells and EC matrix were gently removed with a cotton swab. Invasive cells, which were located on the lower side of the membrane, were stained with crystal violet, air dried and photographed. To quantify the relative number of invaded cells, colorimetric assays were performed by treating the inserts with 150 μl of 10% acetic acid (v/v) and measuring absorbance of each condition at 560 nm using a spectrophotometer (GE Healthcare).

SMILES: O=C(c1cc(Cc2n[nH]c(=O)c3ccccc23)ccc1F)N1CCN(C(=O)C2CC2)CC1 [Olaparib, 4-[3-(4-Cyclopropanecarbonylpiperazine-1-carbonyl)-4-fluorobenzyl]-2H-phthalazin-1-one]
- sensitivity of Ewing's sarcoma cell lines [1]: sensitive to PARP1; also recorded: sensitive to PARP inhibition
- primagraft growth [2]: had no effect
- tumor size (weight) on CAM (LNCaP): significantly smaller
- primagraft growth [3]: inhibited the growth
- ERG-mediated intravasation (RWPE-ERG cells): sufficient to block ERG-mediated intravasation
- ERG induced radiation resistance (colony formation) (PC3 cells): blocks ERG induced radiation resistance; also recorded: reversed by PARP inhibition
- ERG-enhanced DNA DSB damage repair (γH2A.X foci) [4]: blocked; also recorded: reversed by PARP inhibition
- in vitro cell proliferation rate (panel of cell lines): did not have an effect
- xenograft growth (PC3 xenografts): did not block the growth; also recorded: did not significantly inhibit xenograft growth
- ETV1-mediated invasion [5]: does now effect invasion
